Experimental findings from ChEMBL document CHEMBL1201862, “PubChem BioAssay data set” (2004) are described below.

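Test compounds were applied to cells in 96-well plates for 48 hours at 5 doses. Here, GI50 denotes the concentration required for 50% inhibition of growth.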 Calls of active or inactive are those of the source. Rule as the data show it: active = GI50 up to about 1.1 µM and inactive = higher.

Test systems include MOLT-4; COLO 205; Malme-3M; HCT-15; OVCAR-3; SK-MEL-28; IGROV-1; U-251; M14; HCT-116; NCI-H460; OVCAR-5; EKVX; A549; UO-31; SW-620; CCRF-CEM.
Common to all, as to assay: inhibition of tumour cell growth, NCI panel, 48 h

For `O=C1c2ccccc2C(=O)c2c(NCCNCCO)ccc(O)c21`, the GI50 with MOLT-4 is 1.37 µM (inactive); with COLO 205, 2.26 µM (inactive); in the assay with Malme-3M, 3.18 µM (inactive); in the assay on HCT-15, 3.46 µM; in the assay on OVCAR-3 it was 6.46 µM (inactive); in the assay with SK-MEL-28, 2.88 µM (inactive). Besides, the GI50 in the assay with IGROV-1 was 2.97 µM (inactive); with U-251, 3.48 µM (inactive); in the assay with M14, 3.23 µM (inactive); in the assay with HCT-116 it was 1.81 µM (inactive); with NCI-H460, 1.44 µM (inactive); with OVCAR-5, 3.4 µM (inactive). In addition, the GI50 with EKVX is 3.98 µM (inactive); in the assay on A549, 2.45 µM (inactive); with UO-31, 1.49 µM (inactive); with SW-620, 2.26 µM (inactive); with CCRF-CEM, 3.15 µM (inactive).

In the case of `C/C=C/C=C/[C@H]1Cc2cc(O)cc(O)c2O1`, the GI50 in the assay with MOLT-4 was 31.8 µM (inactive); in the assay with COLO 205 it was 55 µM (inactive); with Malme-3M, 52.5 µM (inactive); in the assay on HCT-15, 84.9 µM; in the assay on OVCAR-3 it was 33 µM (inactive); with SK-MEL-28, > 100 µM (inactive). In addition, the GI50 was > 100 µM (inactive) with IGROV-1; 59.2 µM (inactive) in the assay with U-251; 37.3 µM (inactive) with M14; 81.3 µM (inactive) in the assay on HCT-116; 44.1 µM (inactive) in the assay on NCI-H460; > 100 µM (inactive) with OVCAR-5. Besides, the GI50 in the assay on EKVX was 55.5 µM (inactive); in the assay with A549, 70 µM (inactive); with UO-31, 29.4 µM (inactive); in the assay with SW-620 it was 58.6 µM (inactive); in the assay on CCRF-CEM it was 30.8 µM (inactive).

For the molecule `O=C1N=C(Nc2ccccc2Cl)SC1C(=O)Nc1ccc([N+](=O)[O-])cc1[N+](=O)[O-]` (centres undefined), the GI50 is > 100 µM (inactive) in the assay on MOLT-4; > 100 µM (inactive) with COLO 205; > 100 µM (inactive) with Malme-3M; over 100 µM in the assay on HCT-15; > 100 µM (inactive) in the assay on OVCAR-3; > 100 µM (inactive) in the assay on SK-MEL-28. Further, the GI50 in the assay with IGROV-1, with U-251, with M14, with HCT-116, in the assay on NCI-H460 and in the assay on OVCAR-5 was > 100 µM (inactive) each time. Besides, the GI50 was > 100 µM (inactive) with EKVX; > 100 µM (inactive) in the assay on A549; 72.4 µM (inactive) with UO-31; > 100 µM (inactive) with SW-620; > 100 µM (inactive) with CCRF-CEM.

`[O-][S+]1c2ccccc2N=C(c2cccc3ccccc23)CC1c1cccc2ccccc12` (centres undefined): the GI50 in the assay with MOLT-4 was 20.3 µM (inactive); in the assay with COLO 205, 20.9 µM (inactive); in the assay on Malme-3M it was 22.9 µM (inactive); in the assay with HCT-15 it was 15.1 µM; with OVCAR-3, 19.1 µM (inactive); in the assay on SK-MEL-28, 0.91 µM (active). Besides, the GI50 with IGROV-1 was 15.1 µM (inactive); in the assay on U-251, 18.6 µM (inactive); with M14, 14.5 µM (inactive); with HCT-116, 17.3 µM (inactive); in the assay with NCI-H460 it was 15 µM (inactive); with OVCAR-5, 31.6 µM (inactive). For the same molecule, the GI50 in the assay on EKVX was 21.4 µM (inactive); with A549, 18.8 µM (inactive); in the assay with UO-31 it was 23.9 µM (inactive); in the assay on SW-620 it was 17.7 µM (inactive); in the assay with CCRF-CEM, 20.5 µM (inactive).

On to `O=C(/C=C/c1ccccc1)c1ccc(NCc2nc3ccccc3[nH]2)cc1`, for which the GI50 is 3.56 µM (inactive) in the assay with MOLT-4; 3.21 µM (inactive) in the assay on COLO 205; 13.3 µM (inactive) in the assay with Malme-3M; 4.11 µM in the assay with HCT-15; 2.8 µM (inactive) with OVCAR-3; 18 µM (inactive) in the assay with SK-MEL-28. Also, the GI50 with IGROV-1 is 6.56 µM (inactive); with U-251 it was 1.91 µM (inactive); in the assay with M14, 9.02 µM (inactive); in the assay with HCT-116, 3.22 µM (inactive); in the assay with NCI-H460 it was 3.27 µM (inactive); in the assay on OVCAR-5, 10.8 µM (inactive). Also, the GI50 was 8.65 µM (inactive) with EKVX; 4.35 µM (inactive) with A549; 7.21 µM (inactive) in the assay with UO-31; 2.75 µM (inactive) with SW-620; 2.48 µM (inactive) in the assay on CCRF-CEM.

On to `COC(=O)/C(=N\Nc1nc(S)nn1N)C(C#N)c1ccccc1` (centres undefined), for which the GI50 in the assay with MOLT-4 is > 100 µM (inactive); with COLO 205, > 100 µM (inactive); in the assay on Malme-3M, > 100 µM (inactive); with HCT-15, over 100 µM; in the assay with OVCAR-3 it was > 100 µM (inactive); in the assay with SK-MEL-28, > 100 µM (inactive). Besides, the GI50 with IGROV-1, with U-251, in the assay on M14, in the assay with HCT-116, in the assay on NCI-H460 and in the assay on OVCAR-5 was > 100 µM (inactive) each time. Moreover, the GI50 with EKVX, in the assay with A549, in the assay on UO-31, in the assay with SW-620 and in the assay on CCRF-CEM was > 100 µM (inactive) throughout.

Turning to `O=C1[C@H]2ON(c3ccccc3)C(c3ccc(Cl)cc3)[C@H]2C(=O)N1c1ccc(Cc2ccc(N3C(=O)[C@@H]4ON(c5ccccc5)C(c5ccc(Cl)cc5)[C@@H]4C3=O)cc2)cc1` (some centres undefined), the GI50 was > 100 µM (inactive) in the assay with MOLT-4; > 100 µM (inactive) in the assay on COLO 205; 40.7 µM (inactive) with Malme-3M; over 100 µM with HCT-15; > 100 µM (inactive) in the assay with OVCAR-3; > 100 µM (inactive) in the assay with SK-MEL-28. The GI50 with IGROV-1 was > 100 µM (inactive); in the assay with U-251, > 100 µM (inactive); with M14 it was 18.7 µM (inactive); in the assay on HCT-116, > 100 µM (inactive); in the assay on NCI-H460, > 100 µM (inactive); in the assay on OVCAR-5, > 100 µM (inactive). In addition, the GI50 in the assay with EKVX, in the assay with A549, in the assay with UO-31, in the assay on SW-620 and in the assay with CCRF-CEM was > 100 µM (inactive) in each case.

Consider `Cn1c2cc(O)cc(O)c2c(=O)c2c([N+](=O)[O-])cccc21`, for which the GI50 in the assay with MOLT-4 is > 100 µM (inactive); in the assay with COLO 205 it was > 100 µM (inactive); with Malme-3M, > 100 µM (inactive); with HCT-15, over 100 µM; in the assay with OVCAR-3 it was > 100 µM (inactive); in the assay with SK-MEL-28 it was > 100 µM (inactive). For the same molecule, the GI50 in the assay with IGROV-1, in the assay with U-251, in the assay with M14, with HCT-116, in the assay on NCI-H460 and in the assay with OVCAR-5 was > 100 µM (inactive) throughout. Moreover, the GI50 in the assay on EKVX, in the assay with A549, with UO-31, in the assay on SW-620 and in the assay with CCRF-CEM was > 100 µM (inactive) each time.

In the case of `COc1ccc2[nH]c3c(c2c1)[C@H](C)C[C@@H]1C(=O)N(c2ccccc2)C(=O)[C@H]31`, the GI50 with MOLT-4 was 20.6 µM (inactive); with COLO 205 it was 51.3 µM (inactive); in the assay with Malme-3M, 26.6 µM (inactive); in the assay with HCT-15 it was 35.2 µM; in the assay with OVCAR-3, 24 µM (inactive); in the assay on SK-MEL-28, > 100 µM (inactive). Further, the GI50 in the assay with IGROV-1 is 31.8 µM (inactive); in the assay with U-251, 15.5 µM (inactive); with M14, 35.6 µM (inactive); with HCT-116, 20.3 µM (inactive); in the assay on NCI-H460, 26.2 µM (inactive); in the assay on OVCAR-5, 91.8 µM (inactive). Also, the GI50 is 23.9 µM (inactive) with EKVX; 27.4 µM (inactive) in the assay on A549; 36.2 µM (inactive) in the assay with UO-31; 32.4 µM (inactive) in the assay on SW-620; 32.5 µM (inactive) in the assay with CCRF-CEM.

Consider `CC(C)CS(=O)(=O)/C(=C(\c1ccc(Br)cc1)S(=O)(=O)CC(C)C)c1ccc(Br)cc1`, for which the GI50 with MOLT-4 was > 100 µM (inactive); with COLO 205 it was > 100 µM (inactive); in the assay on Malme-3M, > 100 µM (inactive); in the assay on HCT-15 it was over 100 µM; with OVCAR-3, > 100 µM (inactive); in the assay on SK-MEL-28 it was > 100 µM (inactive). The GI50 in the assay on IGROV-1 is 15.6 µM (inactive); with U-251, > 100 µM (inactive); with M14, > 100 µM (inactive); in the assay on HCT-116, > 100 µM (inactive); in the assay on NCI-H460 it was > 100 µM (inactive); with OVCAR-5 it was > 100 µM (inactive). For the same molecule, the GI50 in the assay with EKVX, in the assay with A549, with UO-31, in the assay with SW-620 and with CCRF-CEM was > 100 µM (inactive) each time.

For the molecule `Cc1ccc(C)c(NC(=O)CC/C(=N\NC(=O)C(=O)NN)C(C)C(=O)c2ccc(O)cc2)c1` (centres undefined), the GI50 in the assay with MOLT-4 was > 100 µM (inactive); in the assay with COLO 205, > 100 µM (inactive); in the assay with Malme-3M, > 100 µM (inactive); with HCT-15 it was over 100 µM; in the assay with OVCAR-3, > 100 µM (inactive); with SK-MEL-28 it was > 100 µM (inactive). In addition, the GI50 in the assay with IGROV-1, in the assay with U-251, in the assay on M14, with HCT-116, in the assay with NCI-H460 and in the assay on OVCAR-5 was > 100 µM (inactive) throughout. Besides, the GI50 in the assay with EKVX, with A549, in the assay on UO-31, with SW-620 and with CCRF-CEM was > 100 µM (inactive) throughout.

Consider `COc1ccc(/C=C2\CCC(CCN(C)C)(C3=CCCC3)C2=O)cc1Br` (centres undefined), for which the GI50 in the assay on MOLT-4 was 2.7 µM (inactive); in the assay on COLO 205, 1.58 µM (inactive); in the assay with Malme-3M, 13.8 µM (inactive); in the assay with HCT-15, 4.54 µM; in the assay on OVCAR-3 it was 5.74 µM (inactive); with SK-MEL-28 it was 2.76 µM (inactive). The GI50 in the assay on IGROV-1 was 4.54 µM (inactive); in the assay with U-251, 5.82 µM (inactive); in the assay on M14 it was 1.79 µM (inactive); in the assay with HCT-116, 3.46 µM (inactive); in the assay on NCI-H460, 10.1 µM (inactive); in the assay on OVCAR-5 it was 14 µM (inactive). Moreover, the GI50 is 0.0306 µM (active) with EKVX; 8.32 µM (inactive) in the assay on A549; 5.35 µM (inactive) in the assay on UO-31; 7.66 µM (inactive) in the assay with SW-620; 2.13 µM (inactive) with CCRF-CEM.
